Source: PubChem BioAssay AID1259321 (Sanford-Burnham Center for Chemical Genomics, 2017)
pIC50: −log10 of the molar value. Activity calls are given as the source filed them.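 Rule for the calls: active = half-maximal concentration for changing protein binding to DNA, from the fitted dose curve, below 10 micromolar; inactive = the rest.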

Molecular target: Nuclear receptor subfamily 1 group D member 1 (Homo sapiens) (UniProt P20393)
Assay: Rev-erbα–DNA interaction modulators – biochemical, FITC-DNA, fluorescence polarization, dose response (AID 1259321)
Conditions: Rev-erb alpha-FITC-DNA binding

Sequence of Nuclear receptor subfamily 1 group D member 1 (Homo sapiens) (P20393 whole entry, looked up): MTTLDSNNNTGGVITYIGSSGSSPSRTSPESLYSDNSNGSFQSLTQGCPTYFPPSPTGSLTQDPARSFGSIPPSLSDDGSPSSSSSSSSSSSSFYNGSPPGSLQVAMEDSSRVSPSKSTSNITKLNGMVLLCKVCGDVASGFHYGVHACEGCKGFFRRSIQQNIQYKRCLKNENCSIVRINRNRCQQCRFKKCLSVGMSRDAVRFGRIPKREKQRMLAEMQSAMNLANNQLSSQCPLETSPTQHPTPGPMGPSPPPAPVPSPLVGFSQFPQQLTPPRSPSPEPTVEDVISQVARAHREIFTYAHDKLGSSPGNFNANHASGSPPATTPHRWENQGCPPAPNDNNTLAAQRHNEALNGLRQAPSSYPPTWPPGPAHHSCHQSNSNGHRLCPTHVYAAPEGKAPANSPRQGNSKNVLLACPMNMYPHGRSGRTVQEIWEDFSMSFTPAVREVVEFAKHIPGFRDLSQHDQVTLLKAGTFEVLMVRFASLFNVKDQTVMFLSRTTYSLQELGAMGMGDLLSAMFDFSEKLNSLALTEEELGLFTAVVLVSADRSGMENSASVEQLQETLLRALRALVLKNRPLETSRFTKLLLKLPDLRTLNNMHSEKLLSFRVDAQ

Structure (SMILES)	IC50	pIC50
O=c1c2ccccc2ncn1-c1ccc(Cl)c(Cl)c1	> 40 µM (inactive)	–
Cc1c(Cl)ccc2c(C(N)=O)cc(-c3ccccn3)nc12	–	5.22
Fc1c(F)c(C(F)(F)F)c(F)c(F)c1N1CCN(c2ccc3nnc(C(F)(F)F)n3n2)CC1	–	5.77
COc1cc(OC)cc(-c2c(Sc3ccccc3)c3cc(-c4ccc(OC)c(F)c4)ccc3n2C)c1	–	5.88
Cn1c2ccccc2n2c(=O)c(Cl)c(-c3ccccc3)c(C#N)c12	–	5.47
CC(=O)c1cccc(NC(=O)c2cccc(NC(=O)c3ccco3)c2)c1	–	5.80
O=C(OCCN1C(=O)c2cccc3c(N4CCOCC4)ccc(c23)C1=O)c1ccccc1Cl	–	5.08
COc1ccccc1-c1ccc2c(c1)C(C)(Cc1cc(Cl)ccc1C(F)(F)F)C(=O)N2 (stereo not drawn)	> 40 µM (inactive)	–
COC(=O)c1ccc(Cn2ccc3ccc(-c4ccc5ccn(C(=O)c6ccccc6OC)c5c4)cc32)cc1	–	5.28
Cc1nc2ccc3nc(NC(=O)c4ccc5c(c4)OCCO5)sc3c2s1	–	5.02
Cc1ccc(-n2c(SCC(=O)Nc3cccc(S(=O)(=O)NC4=NCCCCC4)c3)nc3ccccc3c2=O)cc1	inactive	–
CCN(CC)c1ccc(/C=C/c2cccc[n+]2C)c(OC)c1	–	5.14
COc1cc(/C=C(\C#N)c2nc3ccccc3[nH]2)cc(OC)c1O	inactive	–
COc1cc(N2N=C(c3ccccc3)CC2c2ccccc2)c(C=O)cc1C=O (stereo not drawn)	–	5.34
CN(C)c1ccc(C=C2SC(=S)NC2=O)cc1	inactive	–
C=CCn1c(C)c(/C=C/c2cc[n+](C)cc2)c2ccccc21	–	5.00
COc1ccc(-c2nc(N)ncc2Oc2ccccc2Br)c(O)c1	inactive	–
O=C(COc1ncnc2ccc(Br)cc12)NCc1ccc2c(c1)OCO2	–	5.71
COc1ccc(C(=O)Nc2nnc(Cc3cccs3)s2)cc1OC	inactive	–
O=C(CSc1ncnc2c1oc1ccccc12)Nc1cccc(F)c1	–	5.60
O=C(NCCc1ccccc1)c1ccc2c(c1)S(=O)(=O)c1cc(Cl)ccc1C2=O	–	5.74
Cc1cc(-c2cccc([N+](=O)[O-])c2)nc2ccc3ccccc3c12	–	5.52
COc1ccccc1NC(=O)CSc1nc(N)c(C#N)cc1C#N	inactive	–
CSc1ccc(SC2CN(Cc3ccc(C)cc3)S(=O)(=O)C2)cc1 (stereo not drawn)	inactive	–
N#Cc1c(N)nc2c3c(sc(=N)c2c1N)NC(=O)CC3c1ccccc1 (stereo not drawn)	> 40 µM (inactive)	–
CCOc1ccccc1NC(=O)CSC1=C(C#N)C(c2ccco2)C(C(=O)Nc2nc3ccccc3s2)=C(C)N1 (stereo not drawn)	–	5.35

Structure (SMILES)	IC50	pIC50
Cc1onc(-c2ccccc2)c1C(=O)Nc1nc(-c2cc(F)ccc2F)cs1	–	5.37
COc1cc(C(=O)NCc2ccc(-c3nc4ccccc4s3)cc2)cc(OC)c1OC	> 40 µM (inactive)	–
COCCn1c(=NC(=O)c2ccc3c(c2)OCCO3)sc2cc(S(N)(=O)=O)ccc21	–	5.31
O=C(COC(=O)c1ccccc1SCC(=O)NC1CCCCC1)NC1CCCCC1	–	5.32
COc1ccc(C2=NN(C(=O)CSc3ncccn3)C(c3cccc(OC)c3OC)C2)cc1 (stereo not drawn)	–	5.82
COc1ccc2cc(C(=O)Nc3ccc(S(N)(=O)=O)cc3)sc(=O)c2c1OC	–	5.52
COc1cc(OC)cc(C(=O)OCc2cc3ccccc3[nH]c2=O)c1	inactive	–
COc1ccccc1CNC(=O)COC(=O)c1cccnc1SCC(=O)NCc1ccccc1OC	–	5.30
O=[N+]([O-])c1cc(-c2cnc3ccccc3n2)ccc1Cl	–	5.43
C=CCN1C(=O)/C(=C2/Sc3ccc(OC)cc3N2C)SC1=NCc1ccccc1	–	5.20
C[n+]1ccc(/C=C/c2c[nH]c3ccccc23)cc1	inactive	–
O=C(Nc1nc(=O)c2ccccc2s1)c1ccc(F)cc1	–	5.80
Cc1ccc2c(c1C)NC(=O)CC(c1ccccc1O)=N2	> 40 µM (inactive)	–
O=C(CCn1c(SCC(=O)c2ccccc2)nc2ccccc2c1=O)NCc1ccc(F)cc1	> 40 µM (inactive)	–
COC(=O)Cn1c(C)c(/C=C/c2cc[n+](C)cc2)c2ccccc21	–	5.65
Clc1ccccc1-c1nn2c(-c3cc(-c4ccccc4)n[nH]3)nnc2s1	> 40 µM (inactive)	–
CCOc1ccc(C(=O)Nc2nc(C)c(C(=O)OC)s2)cc1	–	5.66
CCOc1ccc2nc(N=Nc3c(O)[nH]c(=S)[nH]c3=O)sc2c1	> 40 µM (inactive)	–
CCN(CC)S(=O)(=O)c1ccc(C(=O)OCCN2C(=O)c3cccc4c(N5CCOCC5)ccc(c34)C2=O)cc1	> 40 µM (inactive)	–
O=C1c2c(Br)c(Br)c(Br)c(Br)c2C(=O)N1c1ccccn1	–	5.08
COc1ccc(-c2c(C)nc(N)nc2-c2ccc(OCc3ccc(C)cc3)cc2O)cc1OC	> 40 µM (inactive)	–
CNc1ccc2c3c(cccc13)C(=O)N(C)C2=O	–	5.34
COc1cc(NC(=O)CCn2c(=S)[nH]c3ccccc3c2=O)cc(OC)c1OC	inactive	–
O=S(=O)(N1CCCCC1)N1CCN(CC(O)COc2ccc3cc(Br)ccc3c2)CC1 (stereo not drawn)	> 40 µM (inactive)	–
Cc1cccc2cc(C#N)c(NCCNC(=O)NC3CCCCC3)nc12	inactive	–
COCCN(Cc1cc2cc(C)ccc2n2nnnc12)C(=S)Nc1ccc(C)cc1	inactive	–

Structure (SMILES)	IC50	pIC50
COc1ccccc1N(C)S(=O)(=O)c1ccc(C(=O)Nc2nc(C)c(C(C)=O)s2)cc1	inactive	–
COc1ccccc1CNc1ncnc2cc(Cl)ccc12	–	5.62
CCN(Cc1nc2cc(Cl)ccc2c(=O)[nH]1)C(=O)c1cc2c(s1)CCCCC2	–	5.49
Cc1ccccc1CNc1ncnc2cc(Cl)ccc12	–	6.01
CCOC(=O)c1sc(NC(=O)c2ccc(S(=O)(=O)N(C)C)cc2)nc1C	inactive	–
Cc1ccc(CNc2nc3ccccc3n3nnnc23)cc1	inactive	–
Cc1nc(NCCc2ccc(Cl)cc2)c2nnn(Cc3ccccc3)c2n1	–	5.72
COc1ccc(-c2cc(C(F)(F)F)c(C#N)c(SCC(=O)Nc3nc(C)co3)n2)cc1	–	5.44
CCOc1cc(N(CC)CC)ccc1/C=C(/C#N)c1nc2ccccc2[nH]1	inactive	–
Cc1ccc(S(=O)(=O)c2nc(Nc3ccccc3C#N)sc2Cl)cc1	inactive	–
COc1ccc(-n2nc(C(=O)NCC(=O)Nc3cccc(Cl)c3)c3ccccc3c2=O)cc1OC	–	5.59
COc1ccc(NC(=O)CSc2nc3ccccc3c(=O)n2-c2ccc3c(c2)OCO3)c(OC)c1	> 40 µM (inactive)	–
COc1cccc(OC)c1-c1nn2c(-c3cc(-c4ccccc4)n[nH]3)nnc2s1	inactive	–
COc1ccc(-n2ncc3c(N4CCc5ccccc54)ncnc32)cc1	–	5.08
O=C(CCCn1c(=S)[nH]c2cc3c(cc2c1=O)OCO3)NCc1ccccc1Cl	inactive	–
CCC(C)OC(=O)c1cc(C)nc2c(Br)cc(Br)cc12 (stereo not drawn)	–	5.12
CN(CC(=O)Nc1ccc(Cl)cc1)S(=O)(=O)c1ccc2c(c1)n(C)c(=O)c(=O)n2C	–	5.26
Cc1nc2cc(NC(=O)CSc3nc4c(C)cccc4cc3C#N)ccc2s1	–	5.23
CCc1cc2cc3c(cc2nc1SCC(=O)Nc1c[nH]c(=O)[nH]c1=O)OCO3	–	5.65
Fc1ccc(CSc2ncnc3c2oc2ccccc23)cc1	–	5.17
CN1C(=O)c2cc(NC(=O)Nc3ccccc3F)ccc2OC[C@H]2O[C@@H](CC(=O)NCc3ccc(-c4ccccc4)cc3)CC[C@@H]21	–	5.45
COc1ccc(-c2nc3c4ccccc4ccn3c2C=O)cc1	inactive	–
N#Cc1ccc(Oc2ccc(-c3nc4ccccc4nc3-c3ccccc3)cc2)cc1C#N	–	5.35
Cc1ccc(C)c(-n2c(-c3ccc(Br)cc3)csc2=NC(=O)c2ccccc2F)c1	inactive	–
O=C(NCc1ccc2c(c1)OCO2)C1CCC(CNS(=O)(=O)c2cccc3nsnc23)CC1 (stereo not drawn)	> 40 µM (inactive)	–
CCOC(=O)C(C)Sc1cc(CS(=O)(=O)c2ccccc2)nc(-c2ccccc2)n1 (stereo not drawn)	> 40 µM (inactive)	–

Structure (SMILES)	IC50	pIC50
Cc1cc(C(C)c2ccccc2)c(O)c(CN2CCOCC2)c1C (stereo not drawn)	inactive	–
Cc1ccccc1OCC(=O)Nc1cccc2nsnc12	–	5.33
COc1ccc(-c2cc(-c3ccccc3)nc(SCC(=O)Nc3nccs3)c2C#N)cc1	> 40 µM (inactive)	–
CC(=O)Nc1ccc(N2C(=O)c3cccc4c(O)ccc(c34)C2=O)cc1	–	6.48
O=C1c2cccc3c(N4CCCCC4)ccc(c23)C(=O)N1c1cccc(O)c1	> 40 µM (inactive)	–
CCOC(=O)c1ccccc1NC(=O)c1cncc(Br)c1	–	5.14
O=C1NC(=O)c2c(Br)c(Br)c(Br)c(Br)c21	–	5.83
CC(C)CCN1C(=O)c2cccc3c(N)ccc(c23)C1=O	–	5.55
Cc1cccc2cc(C(c3nnnn3Cc3ccccc3)N3CCN(c4ccccc4)CC3)c(=O)[nH]c12 (stereo not drawn)	–	5.10
C=CCNc1nc(NCc2ccc(NC(C)=O)cc2)c2sc(-c3ccccc3)cc2n1	–	5.27
CCOC(=O)CC(=O)CSc1nc(-c2ccc3c(c2)OCO3)cc(C(F)(F)F)c1C#N	inactive	–
COC(=O)c1cccc(Cn2ccc3ccc(-c4ccc5ccn(C(=O)c6ccccc6C)c5c4)cc32)c1	–	5.53
COc1ccc2c(c1)c(/C=C/c1cc[n+](C)cc1)cn2C	inactive	–
N#Cc1cc(C#N)c(N2CCN(c3cccc(Cl)n3)CC2)nc1N	–	5.24
COC(=O)c1ccccc1NC(=O)C1=CC(c2cccs2)=NS(=O)(=O)N1C	–	5.94
CCCN=C(C)c1c(-c2ccccc2)[nH]n(-c2nc3ccccc3s2)c1=O	–	6.04
N#Cc1c(-c2ccc(F)cc2)cc(C2CC2)nc1SCC(=O)c1cccs1	> 40 µM (inactive)	–
Cc1ccc(S(=O)(=O)c2nnn3c2nc(N2CCN(c4ccccn4)CC2)c2ccccc23)cc1C	–	5.47
COc1ccc(-c2ccc(-c3noc(-c4ccccc4F)n3)c(OC)n2)cc1	–	5.88
COc1ccc(-c2c(C#Cc3ccsc3)c3cc(-c4ccc5c(c4)OCCO5)ccc3n2C)cc1	> 40 µM (inactive)	–
O=[N+]([O-])c1ccc(NCc2ccccc2)c2nonc12	–	5.92
CC(C)CC[n+]1ccccc1/C=C/c1ccc(N(C)C)cc1	inactive	–
COC(=O)c1ccc(Cn2ccc3ccc(-c4ccc5ccn(C(=O)C6CCCCC6)c5c4)cc32)cc1	–	5.20
Cc1ccc2nc(N3CCN(S(=O)(=O)c4ccc(C)c(Cl)c4)CC3)c(C#N)cc2c1	–	5.48
Cn1c(=O)c2c(nc(SCC(=O)c3cccs3)n2Cc2ccc(F)cc2)n(C)c1=O	> 40 µM (inactive)	–
